# Measurements: patent US12723063B2, “GIPR-agonist compounds” (Eli Lilly and Company, priority 2019, dated 2026)
# *1 amine or outer side, *2 acyl side, *3 side chain or, on linkers, in order; H or OH if unused. Where a SMILES comes first, the peptide text is derived from it. Side-chain parts run from the residue outwards. [ ]: non-standard residue; d: D form. The star is where a group is joined. C20 diacid = O=C(O)CCCCCCCCCCCCCCCCCCC(=O)*; C18 diacid = O=C(O)CCCCCCCCCCCCCCCCC(=O)*; αMePhe(2-F) = C[C@](N)(Cc1ccccc1F)C(=O)O; γGlu = O=C(O)[C@H](CCC(=O)[*:2])N[*:1]; 4Pal = N[C@@H](Cc1ccncc1)C(=O)O; αMeL = CC(C)C[C@](C)(N)C(=O)O; AEEA = NCCOCCOCC(=O)O; Aib = CC(C)(N)C(=O)O
# Legend:
# Test in all cases: cAMP functional assay (HTRF) in HEK293 cells in presence of 0.1% casein
# Type in all cases: cell-based
# [1] = biological target: T1, human GLP-1 receptor (GLP-1R) (Homo sapiens, UniProt P43220); details: HEK293 cells expressing human GLP-1R, geometric mean, read-out: hGLP1R cAMP Rel EC50 nM (SEM, n)
# T1 construct: expressed in transfected cells; host or cells: HEK293
# [2] = biological target: T2, human glucagon receptor (GcgR) (Homo sapiens, UniProt P47871); details: HEK293 cells expressing human GcgR, geometric mean, read-out: hGcgR cAMP Rel EC50 nM (SEM, n)
# T2 construct: expressed in transfected cells; host or cells: HEK293
# [3] = biological target: T3, human glucose-dependent insulinotropic peptide receptor (GIPR) (Homo sapiens, UniProt P48546); details: HEK293 cells expressing human GIPR, geometric mean, read-out: hGIPR cAMP Rel EC50 nM (SEM, n)
# T3 construct: expressed in transfected cells; host or cells: HEK293
# T3 sequence (P48546 22-466): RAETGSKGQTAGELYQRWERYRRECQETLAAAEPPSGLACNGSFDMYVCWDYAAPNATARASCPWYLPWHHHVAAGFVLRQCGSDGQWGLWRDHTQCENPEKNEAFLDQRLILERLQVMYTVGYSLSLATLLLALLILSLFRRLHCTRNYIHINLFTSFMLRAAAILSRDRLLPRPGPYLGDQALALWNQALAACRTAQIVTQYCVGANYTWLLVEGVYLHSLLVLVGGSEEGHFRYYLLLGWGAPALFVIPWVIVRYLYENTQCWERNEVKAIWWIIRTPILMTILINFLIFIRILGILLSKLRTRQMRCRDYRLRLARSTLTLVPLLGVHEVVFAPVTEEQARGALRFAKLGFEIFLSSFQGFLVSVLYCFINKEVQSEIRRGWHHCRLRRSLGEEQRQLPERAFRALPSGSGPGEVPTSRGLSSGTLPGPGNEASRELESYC
# T2 sequence (P47871 26-477): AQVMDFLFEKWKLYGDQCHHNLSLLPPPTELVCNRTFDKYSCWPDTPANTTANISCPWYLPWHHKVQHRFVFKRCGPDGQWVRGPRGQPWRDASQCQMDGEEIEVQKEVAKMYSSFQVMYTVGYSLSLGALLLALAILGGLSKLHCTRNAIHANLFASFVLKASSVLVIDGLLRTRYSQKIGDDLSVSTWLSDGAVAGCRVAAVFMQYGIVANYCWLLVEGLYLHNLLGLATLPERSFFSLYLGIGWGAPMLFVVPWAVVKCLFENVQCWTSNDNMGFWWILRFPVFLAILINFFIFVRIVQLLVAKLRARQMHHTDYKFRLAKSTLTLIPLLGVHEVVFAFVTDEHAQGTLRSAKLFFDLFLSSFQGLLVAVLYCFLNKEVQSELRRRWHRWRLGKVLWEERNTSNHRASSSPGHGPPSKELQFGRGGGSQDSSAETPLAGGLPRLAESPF
# T1 sequence (P43220 24-463): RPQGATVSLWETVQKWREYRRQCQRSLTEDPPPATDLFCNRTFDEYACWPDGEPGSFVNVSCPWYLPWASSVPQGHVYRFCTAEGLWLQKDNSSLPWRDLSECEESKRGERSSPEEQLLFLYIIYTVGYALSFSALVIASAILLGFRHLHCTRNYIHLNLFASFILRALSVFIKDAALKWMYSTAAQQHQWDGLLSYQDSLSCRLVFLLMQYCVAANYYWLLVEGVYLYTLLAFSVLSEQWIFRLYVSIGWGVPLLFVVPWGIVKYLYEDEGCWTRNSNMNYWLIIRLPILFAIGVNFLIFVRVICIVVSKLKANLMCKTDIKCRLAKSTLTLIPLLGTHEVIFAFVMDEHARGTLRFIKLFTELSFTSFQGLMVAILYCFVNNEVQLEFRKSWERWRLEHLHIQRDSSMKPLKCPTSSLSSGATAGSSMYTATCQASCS
smiles,measurement,setting,value
CC[C@H](C)[C@H](NC(=O)[C@H](CCCCN)NC(=O)[C@H](CC(=O)O)NC(=O)[C@H](CC(C)C)NC(=O)[C@](C)(CC(C)C)NC(=O)[C@@H](NC(=O)[C@H](CO)NC(=O)[C@H](Cc1ccc(O)cc1)NC(=O)[C@H](CC(=O)O)NC(=O)[C@H](CO)NC(=O)[C@@H](NC(=O)[C@H](Cc1ccccc1)NC(=O)[C@@H](NC(=O)CNC(=O)[C@H](CCC(=O)O)NC(=O)C(C)(C)NC(=O)[C@@H](N)Cc1ccc(O)cc1)[C@@H](C)O)[C@@H](C)CC)[C@@H](C)CC)C(=O)N[C@@H](Cc1c[nH]cn1)C(=O)N[C@@H](CCC(N)=O)C(=O)NC(C)(C)C(=O)N[C@@H](CC(=O)O)C(=O)N[C@@H](Cc1ccccc1)C(=O)N[C@H](C(=O)N[C@@H](CCC(=O)O)C(=O)N[C@@H](Cc1ccncc1)C(=O)N[C@@H](CCCCNC(=O)COCCOCCNC(=O)COCCOCCNC(=O)CC[C@H](NC(=O)CCCCCCCCCCCCCCCCC(=O)O)C(=O)O)C(=O)N[C@@H](CC(C)C)C(=O)N[C@@H](CCC(=O)O)C(=O)NCC(=O)NCC(=O)N1CCC[C@H]1C(=O)N[C@@H](CO)C(=O)N[C@@H](CO)C(=O)NCC(=O)N[C@@H](C)C(=O)N1CCC[C@H]1C(=O)N1CCC[C@H]1C(=O)N1CCC[C@H]1C(=O)N[C@@H](CO)C(N)=O)C(C)C [Example 110] (H-Y[Aib]EGTFISDYSI[αMeL]LDKIHQ[Aib]DFVE[4Pal]K([AEEA-AEEA-γGlu-C18 diacid])LEGGPSSGAPPPS-NH2),EC50,[1],> 5000 nM
same,EC50,[2],> 5000 nM
same,EC50,[3],0.0071 nM
CC[C@H](C)[C@H](NC(=O)[C@H](Cc1ccccc1)NC(=O)[C@@H](NC(=O)CNC(=O)[C@H](CCC(=O)O)NC(=O)C(C)(C)NC(=O)[C@@H](N)Cc1ccc(O)cc1)[C@@H](C)O)C(=O)N[C@@H](CO)C(=O)N[C@@H](CC(=O)O)C(=O)N[C@@H](Cc1ccc(O)cc1)C(=O)N[C@@H](CO)C(=O)N[C@H](C(=O)N[C@@](C)(CC(C)C)C(=O)N[C@@H](CC(C)C)C(=O)N[C@@H](CC(=O)O)C(=O)N[C@@H](CCC(=O)O)C(=O)N[C@@H](CCCCNC(=O)COCCOCCNC(=O)COCCOCCNC(=O)CC[C@H](NC(=O)CCCCCCCCCCCCCCCCCCC(=O)O)C(=O)O)C(=O)N[C@@H](Cc1c[nH]cn1)C(=O)N[C@@H](CCC(N)=O)C(=O)NC(C)(C)C(=O)N[C@@H](CC(=O)O)C(=O)N[C@@H](Cc1ccccc1)C(=O)N[C@H](C(=O)N[C@@H](CCC(=O)O)C(=O)N[C@@H](Cc1ccncc1)C(=O)N[C@@H](CC(C)C)C(=O)N[C@@H](CC(C)C)C(=O)N[C@@H](C)C(=O)N[C@@H](C)C(=O)NCC(=O)N1CCC[C@H]1C(=O)N[C@@H](CO)C(=O)N[C@@H](CO)C(=O)NCC(=O)N[C@@H](C)C(=O)N1CCC[C@H]1C(=O)N1CCC[C@H]1C(=O)N1CCC[C@H]1C(=O)N[C@@H](CO)C(N)=O)C(C)C)[C@@H](C)CC [Example 85],EC50,[1],> 5000 nM
same,EC50,[2],> 5000 nM
same,EC50,[3],0.0359 nM
CC[C@H](C)[C@H](NC(=O)[C@H](CCCN)NC(=O)[C@H](CC(=O)O)NC(=O)[C@H](CC(C)C)NC(=O)[C@](C)(CC(C)C)NC(=O)[C@@H](NC(=O)[C@H](CO)NC(=O)[C@H](Cc1ccc(O)cc1)NC(=O)[C@H](CC(=O)O)NC(=O)[C@H](CO)NC(=O)[C@@H](NC(=O)[C@H](Cc1ccccc1)NC(=O)[C@@H](NC(=O)CNC(=O)[C@H](CCC(=O)O)NC(=O)C(C)(C)NC(=O)[C@@H](N)Cc1ccc(O)cc1)[C@@H](C)O)[C@@H](C)CC)[C@@H](C)CC)C(=O)N[C@@H](Cc1c[nH]cn1)C(=O)N[C@@H](CCC(N)=O)C(=O)NC(C)(C)C(=O)N[C@@H](CC(=O)O)C(=O)N[C@@H](Cc1ccccc1)C(=O)N[C@H](C(=O)N[C@@H](CCC(=O)O)C(=O)N[C@@H](Cc1ccc(O)cc1)C(=O)N[C@@H](CCCCNC(=O)COCCOCCNC(=O)COCCOCCNC(=O)CC[C@H](NC(=O)CCCCCCCCCCCCCCCCCCC(=O)O)C(=O)O)C(=O)N[C@@H](CC(C)C)C(=O)N[C@@H](CCC(=O)O)C(=O)NCC(=O)NCC(=O)N1CCC[C@H]1C(=O)N[C@@H](CO)C(=O)N[C@@H](CO)C(=O)NCC(=O)N[C@@H](C)C(=O)N1CCC[C@H]1C(=O)N1CCC[C@H]1C(=O)N1CCC[C@H]1C(=O)N[C@@H](CO)C(N)=O)C(C)C [Example 6],EC50,[1],> 5000 nM
same,EC50,[2],> 5000 nM
same,EC50,[3],0.0176 nM
CC[C@H](C)[C@H](NC(=O)[C@H](CO)NC(=O)[C@H](Cc1ccc(O)cc1)NC(=O)[C@H](CC(=O)O)NC(=O)[C@H](CO)NC(=O)[C@@H](NC(=O)[C@](C)(Cc1ccccc1F)NC(=O)[C@@H](NC(=O)CNC(=O)[C@H](CCC(=O)O)NC(=O)C(C)(C)NC(=O)[C@@H](N)Cc1ccc(O)cc1)[C@@H](C)O)[C@@H](C)CC)C(=O)N[C@@H](C)C(=O)N[C@@H](CC(C)C)C(=O)N[C@@H](CC(=O)O)C(=O)N[C@@H](CCCCN)C(=O)N[C@H](C(=O)N[C@@H](Cc1c[nH]cn1)C(=O)N[C@@H](CCC(N)=O)C(=O)NC(C)(C)C(=O)N[C@@H](CC(=O)O)C(=O)N[C@@H](Cc1ccccc1)C(=O)N[C@H](C(=O)N[C@@H](CCC(=O)O)C(=O)N[C@@H](Cc1ccncc1)C(=O)N[C@@H](CCCCNC(=O)COCCOCCNC(=O)COCCOCCNC(=O)CC[C@H](NC(=O)CCCCCCCCCCCCCCCCCCC(=O)O)C(=O)O)C(=O)N[C@@H](CC(C)C)C(=O)N[C@@H](CCC(=O)O)C(=O)N[C@@H](C)C(=O)NCC(=O)N1CCC[C@H]1C(=O)N[C@@H](CO)C(=O)N[C@@H](CO)C(=O)NCC(=O)N[C@@H](C)C(=O)N1CCC[C@H]1C(=O)N1CCC[C@H]1C(=O)N1CCC[C@H]1C(=O)N[C@@H](CO)C(N)=O)C(C)C)[C@@H](C)CC [Example 113] (H-Y[Aib]EGT[αMePhe(2-F)]ISDYSIALDKIHQ[Aib]DFVE[4Pal]K([AEEA-AEEA-γGlu-C20 diacid])LEAGPSSGAPPPS-NH2),EC50,[1],> 5000 nM
same,EC50,[2],> 5000 nM
same,EC50,[3],0.0142 nM
CC[C@H](C)[C@H](NC(=O)[C@H](CO)NC(=O)[C@H](Cc1ccc(O)cc1)NC(=O)[C@H](CC(=O)O)NC(=O)[C@H](CO)NC(=O)[C@@H](NC(=O)[C@H](Cc1ccccc1)NC(=O)[C@@H](NC(=O)CNC(=O)[C@H](CCC(=O)O)NC(=O)[C@@H](C)NC(=O)[C@@H](N)Cc1ccc(O)cc1)[C@@H](C)O)[C@@H](C)CC)C(=O)N[C@@H](CC(C)C)C(=O)N[C@@H](CC(C)C)C(=O)N[C@@H](CC(=O)O)C(=O)N[C@@H](CCCCN)C(=O)N[C@@H](CCCCNC(=O)COCCOCCNC(=O)COCCOCCNC(=O)CC[C@H](NC(=O)CCCCCCCCCCCCCCCCCCC(=O)O)C(=O)O)C(=O)N[C@@H](Cc1c[nH]cn1)C(=O)N[C@@H](CCC(N)=O)C(=O)N[C@@H](CCC(N)=O)C(=O)N[C@@H](CCC(=O)O)C(=O)N[C@@H](Cc1ccccc1)C(=O)N[C@H](C(=O)N[C@@H](CC(N)=O)C(=O)N[C@@H](Cc1c[nH]c2ccccc12)C(=O)N[C@@H](CC(C)C)C(=O)N[C@@H](CC(C)C)C(=O)N[C@@H](C)C(=O)N[C@@H](CCC(N)=O)C(=O)NCC(=O)N1CCC[C@H]1C(=O)N[C@@H](CO)C(=O)N[C@@H](CO)C(=O)NCC(=O)N[C@@H](C)C(=O)N1CCC[C@H]1C(=O)N1CCC[C@H]1C(=O)N1CCC[C@H]1C(=O)N[C@@H](CO)C(N)=O)C(C)C [Example 13] (H-Y[dA]EGTFISDYSILLDKK([AEEA-AEEA-γGlu-C20 diacid])HQQEFVNWLLAQGPSSGAPPPS-NH2),EC50,[1],> 100 nM
same,EC50,[2],> 5000 nM
same,EC50,[3],0.129 nM
